We go through 31 molecules from article PMC10328330 (PLOS ONE, 2023).

In data set [1] the test system is T. gondii tachyzoites (RH strain, clone 2F1). The data set is described as follows: microbe, parasite or virus in culture. It is filed as cell-based, Toxoplasma gondii. Conditions: for EC50: 72 h, read-out: EC50 ± SD against T. gondii tachyzoites.
A short description of a further data set: in vitro. Conditions: human.
The nature of data set [2]: Cytotoxicity in mammalian cells (MTT assay). The following applies: human, HFF cells.
The next data set deals with T. gondii. Further details: method as in PMID 23019377. Conditions: T. gondii-infected mice, after 16 days of treatment, cited from earlier work.
In the next data set the test system is HFF cells. The data set is described as follows: Cytotoxicity in mammalian cells (MTT assay). The following applies: read-out: CC50 ± SD against HFF cells; HFF, 72 h, MTT; highest tested concentration 50 μM; ± SD of two independent experiments.
Setting [3] is: Toxoplasma gondii, RH-2F1 tachyzoites in HFF, β-galactosidase readout, ± SD of two independent experiments.
Where [4] appears, read: CC50 HFF cells/EC50 T. gondii ratio.
Setting [5] is: RH-2F1 tachyzoites in HFF, β-galactosidase readout, ± SD of two independent experiments.

Each structure is given as a SMILES string. Where two headings read alike, the source gives them in different places. Numbered stars: 1 amine (or outer) side, 2 acyl side, 3 side chain; on linkers, the order of the positions; unused ones are H or OH. Bridge positions count the residues as written; N and C are the ends. Square brackets hold non-standard residues; d marks the D form. Peptide text beside a SMILES is read from it. * marks the point of attachment. pTerphenylCO(4''-OnC5H11) = CCCCCOc1ccc(-c2ccc(-c3ccc(C(=O)*)cc3)cc2)cc1; Orn(4R-OH,5R-OH) = O=C([C@H](C[C@@H](O)[C@@H](O)N[*:3])N[*:1])[*:2]; hTyr(3S-OH,4S-OH) = N[C@H](C(=O)O)[C@H](O)[C@@H](O)c1ccc(O)cc1; Pro(3S-OH,4S-Me) = C[C@H]1CN[C@H](C(=O)O)[C@H]1O; Hyp = O=C(O)[C@@H]1C[C@@H](O)CN1

As to `COc1ccc2cc1Oc1ccc(cc1)C[C@H]1c3cc(c(OC)cc3CCN1C)Oc1c(OC)c(OC)cc3c1[C@H](C2)N(C)CC3` [Compound 13, Tetrandrine], the “Selectivity Index (SI)” value in data set [1] was 71. Also, the EC50 in data set [1] (setting [3]) amounted to 490 ± 150 nM. The same molecule came in with a CC50 in “in vitro” of 34.7 ± 17 µM.
With `C[C@@H]1C[C@@H]([C@H](O)CC2CC(=O)NC(=O)C2)C(=O)[C@@H](C)C1` [Compound 25, Cycloheximide], the 50% effective concentration (EC50) in data set [1] (setting [3]) is 40 ± 20 nM. Besides, the CC50 in the data set “in vitro” worked out at 2.48 ± 0.08 µM.
As to `COC(=O)C1=C(C)NC(C)=C(C(=O)OCCN2CCN(C(c3ccccc3)c3ccccc3)CC2)C1c1cccc([N+](=O)[O-])c1` (stereo not drawn) [Compound 10, Manidipine], the “Selectivity Index (SI)” value in data set [1] (setting [4]) was above 71. In data set [1] (setting [3]), the EC50 worked out at 700 ± 250 nM. In the data set “in vitro”, the CC50 at 72 h was above 50 µM.
With `CO[C@H]1C[C@@H]2CC[C@@H](C)[C@@](O)(O2)C(=O)C(=O)N2CCCC[C@H]2C(=O)O[C@H]([C@H](C)C[C@@H]2CC[C@@H](O)[C@H](OC)C2)CC(=O)[C@H](C)/C=C(\C)[C@@H](O)[C@@H](OC)C(=O)[C@H](C)C[C@H](C)/C=C/C=C/C=C/1C` [Compound 17, Rapamycin], the “Selectivity Index (SI)” value in data set [1] was above 65. Also, the concentration for a half-maximal effect (EC50) in data set [1] (setting [3]) was 770 ± 300 nM. The molecule further came in with a CC50 at 72 h in the data set “in vitro” above 50 µM.
In the case of `O=C(O)c1ccc2c(c1)nc(Nc1cccc(Cl)c1)c1ccncc12` [Compound 22, Silmitasertib], in data set [2], the CC50 at 72 h was determined as 38.4 ± 16.4 µM. Also, the EC50 in data set [1] (setting [3]) turned out to be 870 ± 150 nM.
In the case of `CCCCCOc1ccc(-c2ccc(-c3ccc(C(=O)N[C@H]4C[C@@H](O)[C@@H](O)NC(=O)[C@@H]5[C@@H](O)[C@@H](C)CN5C(=O)[C@H]([C@@H](C)O)NC(=O)[C@H]([C@H](O)[C@@H](O)c5ccc(O)cc5)NC(=O)[C@@H]5C[C@@H](O)CN5C(=O)[C@H]([C@@H](C)O)NC4=O)cc3)cc2)cc1` [Compound 19, Anidulafungin] ({pTerphenylCO(4''-OnC5H11)}-[Orn(4R-OH,5R-OH)]T[Hyp][hTyr(3S-OH,4S-OH)]T[Pro(3S-OH,4S-Me)]; lactam 1-C), in data set [1] (setting [4]), the “Selectivity Index (SI)” value is on record as 47. In data set [1] (setting [3]), the 50% effective concentration (EC50) is 830 ± 210 nM. In the data set “in vitro”, the CC50 is 38.9 ± 15.7 µM.
Consider `CNC(=O)c1cc(Oc2ccc(NC(=O)Nc3ccc(Cl)c(C(F)(F)F)c3)cc2)ccn1` [Compound 9, Sorafenib], for which the CC50 at 72 h in data set [2] was 12.4 ± 3.17 µM. Further, the EC50 in data set [1] (setting [3]) turned out to be 650 ± 250 nM.
For `COc1cc2c3cc1Oc1c(OC)c(OC)cc4c1[C@@H](Cc1ccc(O)c(c1)Oc1ccc(cc1)C[C@@H]3N(C)CC2)N(C)CC4` [Compound 18, Berbamine], the “Selectivity Index (SI)” value in data set [1] (setting [4]) came to 61. In addition, the concentration giving a half-maximal response (EC50) in data set [1] (setting [3]) stood at 740 ± 340 nM. Moreover, the CC50 in “in vitro” is 45.3 ± 5.4 µM.
Take `COc1cc2[nH]c(C)c(-c3ccc(Oc4ccc(OC(F)(F)F)cc4)cc3)c(=O)c2cc1F` [ELQ-316]: the “reduction of the number of brain cysts” value with T. gondii (25 mg/kg) is 88%.
Molecule `CCN1CCN(Cc2ccc(Nc3ncc(F)c(-c4cc(F)c5nc(C)n(C(C)C)c5c4)n3)nc2)CC1` [Compound 12, Abemaciclib] gave a CC50 at 72 h in data set [2] above 50 µM. Also, the half-maximal effective concentration (EC50) in data set [1] (setting [3]) was 50 ± 20 nM.
With `C[C@@H](C1CCCCC1)n1c(-c2cc3c(cc2Br)OCO3)nc2cc(C(=O)Nc3ccc(C#N)cc3)ccc21` [Compound 26, AZ3451], the CC50 in the data set on HFF cells was above 50 µM. Also, the “Selectivity Index (SI)” value in data set [1] (setting [4]) is given as above 55. In addition, the concentration for a half-maximal effect (EC50) in data set [1] (setting [5]) was found to be 910 ± 90 nM.
The molecule `O=C1NCN(c2ccccc2)C12CCN(CCCC(c1ccc(F)cc1)c1ccc(F)cc1)CC2` [Compound 14, Fluspirilene] returned a CC50 at 72 h in data set [2] above 50 µM. The concentration giving a half-maximal response (EC50) in data set [1] (setting [3]) turned out to be 760 ± 70 nM.
`CC(C)(C)Cn1c(N)nc2ccc(-c3[nH]c(C(C)(C)C)nc3-c3ccc(F)cc3)nc21` [Compound 7, LY 2228820]: the “Selectivity Index (SI)” value in data set [1] (setting [4]) is recorded as 116. In data set [1] (setting [3]), the EC50 came to 230 ± 10 nM. Further, the CC50 in “in vitro” was found to be 26.6 ± 11.6 µM.
On to `CCOc1ccc(Cc2nccc3cc(OCC)c(OCC)cc23)cc1OCC` [Compound 3, Ethaverine], for which, in data set [1], the “Selectivity Index (SI)” value is on record as above 54. Moreover, in data set [1] (setting [3]), the EC50 was 920 ± 90 nM. The molecule further had a CC50 at 72 h in the data set “in vitro” above 50 µM.
Turning to `CNCc1[cH-]ccc1CNc1ccnc2cc(Cl)ccc12.[Fe+2].c1cc[cH-]c1` [Compound 27, Desmethyl ferroquine], in the data set on HFF cells, the CC50 is 38.2 ± 15.6 µM. Further, the “Selectivity Index (SI)” value in data set [1] (setting [4]) worked out at 71. In data set [1] (setting [5]), the EC50 turned out to be 540 ± 20 nM.
Take `Nc1nc(Nc2ccc3c(c2)CC[C@@H](N2CCCC2)CC3)nn1-c1cc2c(nn1)-c1ccccc1CCC2` [Compound 2, Bemcentinib]: in data set [1] (setting [4]), the “Selectivity Index (SI)” value is 83. The half-maximal effective concentration (EC50) in data set [1] (setting [3]) turned out to be 380 ± 190 nM. Besides, the CC50 at 72 h in the data set “in vitro” came to 31.6 ± 5.52 µM.
Regarding `CCC(C)n1ncn(-c2ccc(N3CCN(c4ccc(OCC5COC(Cn6cncn6)(c6ccc(Cl)cc6Cl)O5)cc4)CC3)cc2)c1=O` (stereo not drawn) [Compound 5, Itraconazole], the CC50 at 72 h in data set [2] is above 50 µM. For the same molecule, in data set [1] (setting [3]), the EC50 amounted to 100 ± 10 nM.
As for `COc1cccc2c1CCCC2CCCN1CCN(C2CCCCC2)CC1` (stereo not drawn) [Compound 23, PB 28], the CC50 with HFF cells was above 50 µM. Further, the “Selectivity Index (SI)” value in data set [1] (setting [4]) is given as above 102. The EC50 in data set [1] (setting [5]) is 490 ± 210 nM.
For the molecule `O=c1[nH]c2ccccc2n1C1CCN(CCCC(c2ccc(F)cc2)c2ccc(F)cc2)CC1` [Compound 29, Pimozide], in data set [2], the CC50 at 72 h was above 50 µM. For the same molecule, in data set [1], the “Selectivity Index (SI)” value was above 61. Also, the half-maximal effective concentration (EC50) in data set [1] (setting [3]) stood at 820 ± 220 nM.
As for `C=CCNc1nc(NCC=C)nc(N2CCN(C(c3ccc(F)cc3)c3ccc(F)cc3)CC2)n1` [Compound 11, Almitrine], in data set [2], the CC50 at 72 h was above 50 µM. Besides, the EC50 in data set [1] (setting [3]) worked out at 320 ± 140 nM.
As for `COc1cc(NC(=O)Nc2cccc(CNC(=O)O[C@H]3CCOC3)c2)ccc1-c1cnco1` [Compound 24, Merimepodib], the EC50 in data set [1] (setting [3]) was found to be 780 ± 270 nM. The molecule further gave a CC50 in “in vitro” of 26.4 ± 10 µM.
In the case of `CCc1nc(N)nc(N)c1-c1ccc(Cl)cc1` [Compound 30, Pyrimetamine], in data set [2], the CC50 at 72 h is above 50 µM. For the same molecule, the EC50 in data set [1] (setting [3]) worked out at 370 ± 80 nM.
In data set [2], `OC(CNCC(O)C1CCc2cc(F)ccc2O1)C1CCc2cc(F)ccc2O1` (stereo not drawn) [Compound 28, Nebivolol] had a CC50 at 72 h of 37.1 ± 2.88 µM. For the same molecule, in data set [1], the “Selectivity Index (SI)” value was determined as 48. Also, the EC50 in data set [1] (setting [3]) turned out to be 780 ± 280 nM.
Consider `O=C1C(O)=C([C@H]2CC[C@H](c3ccc(Cl)cc3)CC2)C(=O)c2ccccc21` [Atovaquone], for which, in the data set with T. gondii (5 mg/kg), the “reduction of the number of brain cysts” value is 44%.
As for `CN(C)[C@@H]1C(O)=C(C(N)=O)C(=O)[C@@]2(O)C(O)=C3C(=O)c4c(O)cccc4[C@@](C)(O)[C@H]3C[C@@H]12` [Compound 15, Tetracycline], the 50% effective concentration (EC50) in data set [1] (setting [3]) came to 910 ± 90 nM. In addition, the CC50 in “in vitro” is above 50 µM.
Turning to `O=C(Nc1ccc([N+](=O)[O-])cc1Cl)c1cc(Cl)ccc1O` [Compound 1, Niclosamide], in data set [2], the CC50 at 72 h was found to be 35.5 ± 9.57 µM. In addition, in data set [1], the “Selectivity Index (SI)” value stood at 83. Also, the half-maximal effective concentration (EC50) in data set [1] (setting [3]) is 430 ± 150 nM.
For `CCSc1ccc2c(c1)N(CCCN1CCN(C)CC1)c1ccccc1S2` [Compound 21, Thiethylperazine], in data set [1], the “Selectivity Index (SI)” value is listed as 37. Further, the EC50 in data set [1] (setting [3]) turned out to be 900 ± 110 nM. The molecule further showed a CC50 at 72 h in the data set “in vitro” of 33.1 ± 6.01 µM.
On to `CN(C)CCOc1ccc(/C(=C(/CCCl)c2ccccc2)c2ccccc2)cc1` [Compound 16, Toremifene], for which the EC50 in data set [1] (Toxoplasma gondii) was 850 ± 180 nM. Further, the CC50 at 72 h in the data set “in vitro” stood at 44.3 ± 6.8 µM.
With `COc1ccc2cc1Oc1ccc(cc1)C[C@H]1c3cc(c(OC)cc3CCN1C)Oc1c(O)c(OC)cc3c1[C@H](C2)N(C)CC3` [Compound 20, Hanfangchin B], the CC50 in the data set with HFF cells amounted to 45 ± 5.85 µM. Further, the “Selectivity Index (SI)” value in data set [1] (setting [4]) is on record as 54. For the same molecule, in data set [1] (setting [5]), the EC50 amounted to 840 ± 190 nM.
Regarding `CNC(=O)c1cc(Oc2ccc(NC(=O)Nc3ccc(Cl)c(C(F)(F)F)c3)c(F)c2)ccn1` [Compound 4, Regorafenib], in data set [1] (setting [4]), the “Selectivity Index (SI)” value is reported as 29. Also, the half-maximal effective concentration (EC50) in data set [1] (setting [3]) was 400 ± 150 nM. Also, the CC50 at 72 h in the data set “in vitro” turned out to be 11.6 ± 2.19 µM.
`Nc1nc2nc[nH]c2c(=S)[nH]1` [Compound 6, Tioguanine] had a CC50 at 72 h in data set [2] above 50 µM. Moreover, the “Selectivity Index (SI)” value in data set [1] is recorded as above 109. Moreover, the half-maximal effective concentration (EC50) in data set [1] (Toxoplasma gondii) was 460 ± 190 nM.
